# Assay results: patent publication US4001428A, “Cyclopropane derivatives and use thereof as cell membrane mobility agents” (Polymer Sciences Corporation, priority 1974, dated 1977)
# Legend:
# rabbit lymphocytes = test: Cap formation on lymphocytes treated with fluorescent antibody (membrane mobility); assay type: cell-based
# Protocol: Cap formation was followed on rabbit lymphocytes preincubated for various periods of time with one of the compounds, then treated with fluorescent antibody. At least 20 minutes preincubation with the aqueous dispersion of agent A2 C were required to produce a change in the observed rate from that of the control and between 1 and 2 h incubation was required for maximum response. A 1-h period was utilized in most experiments.
# FIG. 2 illustrates the rate of cap formation in lymphocytes treated with A2 C. In each of these experiments rabbit blood was anticoagulated with heparin (200 I.U./cm^3) and diluted with NaCl-phosphate buffer, pH 7.3 (137 mM NaCl-1.8 mM KH2 PO4 -8.2 mM Na2 HPO4) to 40% of original volume. Diluted blood was layered over sodium metrizoate (Nyegaard, Oslo, Norway)-Ficoll (Pharmacia, Uppsala, Sweden) mixture (containing 6.3% Ficoll and 10% sodium metrizoate), and centrifuged for 30 min. at 400 g at 25° C. Cells collected from the interphase contained over 80% lymphocytes. Cells were centrifuged, washed 3 times in buffer containing albumin and resuspended in the same or A2 C buffer. (A2 C was suspended in buffer (with Vortex) and albumin added). Final concentrations: lymphocytes 10^7 cells/cm^3.A2 C 0.02-0.2 μl/cm^3, 0.2% albumin, 5 mM glucose. Usual sample volume: 0.2 cm^3. The cell suspension was incubated at 22° or 24° C for 60 min. […] Expt I: 0.1 1 A 2 C per cm^3; (log concn -3.7); temp. 22 C. Expt II: 0.02 and 0.2 A2 C per cm^3; temp. 24° C. Expt III: 0.2 A2 C per cm^3; temp. 24° C.
# glutathione = settings: within cells; cited from earlier work
# lymphocytes = test: Viability/cytotoxicity of lymphocytes, dye-exclusion test with trypan blue; assay type: cell-based; settings: 60 minutes incubation, FIG. 1
# Protocol: The viability of the cells thus incubated was evaluated by the dye-exclusion test, using trypan blue.
# hen red blood cells = test: Fusion of hen red blood cells; assay type: cell-based; settings: 0.125 to 0.5 μl/cc of cell suspension, 37° C
# Protocol: (§1) Blood from the brachial vein of adult hens was mixed with heparin (as anticoagulant), centrifuged and the buffy coat removed. The erythrocytes were washed twice with 150 mM NaCl and once with buffer containing 76 mM sodium acetate, 70 mM NaCl, 1 mM CaCl2 and 100 mg/cc Dextran (MW 70,000) Pharmacia, Uppsala, Sweden (pH 5.7). The buffer is similar to but simpler than that used in a similar procedure by Lucy et al. The cells were resuspended in the same buffer and mixed with an equal volume of a suspension of the mobility agent A2 C dispersed in 150 mM NaCl by sonication. […] The final concentrations of A2 C used ranged between 0.06μl to 0.5 μl/cc containing 2-3 × 10^8 cells, 0.5 mM CaCl2, 38 mM sodium acetate, 110 mM NaCl and dextran (50 mg/cc). Cell suspensions were incubated at the desired temperature, mixed gently every 5 - 15 minutes and aliquots removed at intervals for viewing and photography at room temperature.
# neurotransmitter release = test: Neurotransmitter release from cells; assay type: cell-based
# Source text: Many intracellular agents are released from cells at rates which are below that desirable for optimum bilogical activity. […] For example, the use of the membrane mobility agents of the invention on brain tissue would lead to more efficient response to pharmacologically-active compounds and stimuli (such as electrical stimuli) on such brain tissue.
# mastocytoma = test: Agglutination of mastocytoma cells by wheat germ agglutinin and cap formation; assay type: cell-based
# Source text: Some malignant cells, like mastocytoma, agglutinate in the presence of wheat germ agglutinin.
# [1] = Retained activity of sonicated suspension; assay type: physicochemical; settings: dispersed in 150 mM NaCl by sonication, ca. 2 min
# Protocol: as §1
smiles,measurement,setting,value
"CCCCCCCCCCCCCCCCCC(=O)OCCOCCOC [A2 S, 2-(2-methoxy)-ethoxyethyl octadecanoate, reference compound]",membrane mobility activity (active/inactive),rabbit lymphocytes; classification of compounds of Table I,inactive
"CN1CCN(C(=O)N=NC(=O)N2CCN(C)CC2)CC1 [DIP, diazene dicarboxylic acid bis(N'-methylpiperazide)]",oxidation of intracellular glutathione,glutathione,oxidizes the glutathione within cells to glutathione disulfide
"CCCCCCCCC1CC1CCCCCCCC(=O)OCCOCCOC (stereo not shown) [A2 C, 2-(2-methoxy)-ethoxyethyl 8-(2-n-octylcyclopropyl octanoate]","rate of cap formation in treated cells, increase over controls","rabbit lymphocytes; 0.02-0.2 μl/cm^3, 60 min incubation at 22° or 24° C, FIG. 2",≤ 50%
same,"effect of inherent ""high"" or ""low"" capacity for cap formation on the effects of the agent",rabbit lymphocytes; FIG. 2,does not alter the effects produced by the mobility agent
same,"initial state of treated cells, extrapolation to zero cap formation time",rabbit lymphocytes; FIG. 2,"might be initially more ""prepared"" to form caps than the control cells"
same,preincubation time required to produce a change in the observed rate of cap formation from that of control,"rabbit lymphocytes; aqueous dispersion of agent, rabbit lymphocytes",At least 20 minutes
same,cytotoxicity on lymphocytes relative to concentration affecting mobility,lymphocytes,toxic at concentrations considerably above that at which maximum effect on mobility was observed
same,extent of erythrocytes eventually involved in fusion,hen red blood cells,most of the erythrocytes
same,"fusion of erythrocytes, degree of fusion",hen red blood cells,"increasing degrees of fusion, starting with binucleated, trinucleated and tetranucleated cells and proceeding to multi-nucleated cells"
same,rounding and swelling of the cells,hen red blood cells,rounding and swelling of the cells
same,neurotransmitter release,neurotransmitter release,augmented by a small factor
same,cap formation on mastocytoma cells,mastocytoma,cause caps to form
same,extent of agglutination,mastocytoma; wheat germ agglutinin,diminish the extent of agglutination
same,activity of sonicated suspension over time,[1],remains active for several hours
"CCCCCCCCC1CC1CCCCCCCC(=O)OCCOCCOCCOC (stereo not shown) [A3 C, 2-[2-(2-methoxy)-ethoxy]ethoxyethyl 8-(2-n-octycyclopropyl)-octanoate]",cytotoxicity on lymphocytes relative to concentration affecting mobility,lymphocytes,toxicity with amounts close to that at which an effect on mobility was seen
"CCCCCCCCC1CC1CCCCCCCCOCCOCCOC (stereo not shown) [A2 CE, 2-(2-methoxy)-ethoxyethyl 8-(2-n-octylcyclopropyl)-n-octyl ether]",effect on cap formation / effectiveness as membrane mobility agent,"rabbit lymphocytes; standard incubation period, FIGS. 3 and 4",less than the ester A1 C in effect
